From patent US5120870A, “Emulsion of lipid containing a prostaglandin analogue” (priority 1989, dated 1992)

What was measured:
[1] = Stability of the PG analogue during the preparation of the emulsion (HPLC); type: physicochemical; conditions: lipid emulsion prepared at 90° C., final concentration 5 μg/ml
Experimental: To 500 μg of the PG analogue of the formula (2) of the present invention produced as described above, 10 g of purified soybean oil and 1.2 g of purified yolk lecitin were added, and the mixture was melted under heating at 90° C. by means of a homogenizer at 90° C. Then, 2.5 g of glycerol and 90 ml of distilled water for injection were added thereto, followed by rough emulsification by means of a homogenizer at […]. The product is then emulsified by means of a manton gaulin type homogenizer to obtain an emulsion having a final concentration of 5 μg/ml.
The stability of the PG analogue of the present invention during the preparation of the emulsion and the storage stability of the emulsion were measured, and the results are shown in Table 3.
The stability during the preparation and the remaining rate in the storage stability was measured by a separation quantitative analysis by means of high performance liquid chromatography, and the ratio of the measured amount relative to the amount at the initiation of the test was taken as the remaining rate.

[2] = Storage stability of the emulsion (HPLC); type: physicochemical; conditions: for Storage stability: Decomposition reaction rate constant: 40° C., calculated from change with time of remaining rate; for Storage stability: Remaining rate: emulsion stored 4 weeks at 40° C., 40320 min
Experimental: | Storage stability: | Stored for 4 weeks under a temperature condition of 40° C., and th | remaining rate (%) after the 4 weeks was measured. Further, from the | change with time of the remaining rate, the decomposition reaction rate | constant was calculated. The stability during the preparation and the remaining rate in the storage stability was measured by a separation quantitative analysis by means of high performance liquid chromatography, and the ratio of the measured amount relative to the amount at the initiation of the test was taken as the remaining rate.

[3] = tested on: platelet aggregation; test: Platelet aggregation inhibiting effect, ADP-induced, platelet rich plasma; type: cell-based; conditions: 20 μM ADP, relative to physiological saline
Experimental: Further, the platelet aggregation inhibiting effects were measured as follows, and the results are shown also in Table 3.
Using sodium citrate (3.8%), peripheral blood was collected (blood 9, sodium citrate 1). This peripheral blood was subjected to centrifugal separation at 1000 rpm for 10 minutes to obtain a platelet rich plasma, and the rest was subjected to centrifugal separation at 3000 rpm for 20 minutes to obtain a plate poor plasma. To 225 μl of the platelet rich plasma, 50 μl of a test sample was added. One minute later, platelet aggregation was induced with 20 μMADP solution 25, whereupon the aggregation inhibitory rate (%) was calculated based on the aggregation rate when a physiological saline solution was added instead of the test sample, being rated as 100%.

[4] = tested on: human platelet aggregation; conditions: Table 1(b), activity of PGE1 rated 100, cited from earlier work; for Inhibitory effects against human platelet aggregation (relative activity): (no incubation stated)
[5] = 1.6% BSA-saline solution, mean ± SE, n = 4-7, cited from earlier work

SMILES: CCCCC[C@H](O)/C=C/[C@@H]1C(CCCCCCC(=O)OCCCC)=C(OC(C)=O)C[C@H]1O [Example 3, butyl 9-acetoxy-11α,15S-dihydroxyprosta-8,13E-diene-1-oate]
- Stability during the preparation [1]: 72.1%
- Storage stability: Decomposition reaction rate constant [2]: 8.30 d^-1 × 10^3
- Storage stability: Remaining rate [2]: 80.1%
- Platelet aggregation inhibitory effects [3]: 93%

SMILES: CCCCC[C@H](O)/C=C/[C@@H]1C(CCCCCCC(=O)OC)=C(OC(C)=O)C[C@H]1O [Example 2, methyl 9-acetoxy-11α,15S-dihydroxyprosta-9,13E-diene-1-oate]
- Stability during the preparation [1]: 70.4%
- Storage stability: Decomposition reaction rate constant [2]: 11.8 d^-1 × 10^3
- Storage stability: Remaining rate [2]: 72.7%
- Platelet aggregation inhibitory effects [3]: 100%

SMILES: CCCCC[C@H](O)/C=C/[C@H]1[C@H](O)CC(=O)[C@@H]1CCCCCCC(=O)OC [PGE1 methyl ester]
- Inhibitory effects against human platelet aggregation (relative activity) [4]: 23
- Inhibitory effects against human platelet aggregation (relative activity), after incubating in human serum for 20 min [4]: 51
- % of PGE1 (or ester) liberated from LM, 1 min incubation [5]: 82.5 ± 3.8%
- % of PGE1 (or ester) liberated from LM, 10 min incubation [5]: 80.4 ± 2.9%

SMILES: CCCCC[C@H](O)/C=C/[C@H]1[C@H](O)CC(=O)[C@@H]1CCCCCCC(=O)OCC [PGE1 ethyl ester]
- Inhibitory effects against human platelet aggregation (relative activity) [4]: 20
- Inhibitory effects against human platelet aggregation (relative activity), after incubating in human serum for 20 min [4]: 28
- % of PGE1 (or ester) liberated from LM, 1 min incubation [5]: 82.0 ± 8.8%
- % of PGE1 (or ester) liberated from LM, 10 min incubation [5]: 125.4 ± 11.7%

SMILES: CCCCC[C@H](O)/C=C/[C@H]1[C@H](O)CC(=O)[C@@H]1CCCCCCC(=O)O [PGE1]
- Stability during the preparation [1]: 43.9%
- Storage stability: Decomposition reaction rate constant [2]: 113 d^-1 × 10^3
- Storage stability: Remaining rate [2]: 4.6%
- Platelet aggregation inhibitory effects [3]: 55%

SMILES: CCCC[C@H](C)C[C@H](O)/C=C/[C@@H]1C(CCCCCCC(=O)OC)=C(OC(C)=O)C[C@H]1O [Example 4, methyl 9-acetoxy-11α,15S-dihyroxy-17S,20-dimethylprosta-8,13E-diene-1-oate]
- Stability during the preparation [1]: 68.3%
- Storage stability: Decomposition reaction rate constant [2]: 8.87 d^-1 × 10^3
- Storage stability: Remaining rate [2]: 77.9%
- Platelet aggregation inhibitory effects [3]: 44%

SMILES: CCCCCCCCOC(=O)CCCCCC[C@H]1C(=O)C[C@@H](O)[C@@H]1/C=C/[C@@H](O)CCCCC [PGE1 octyl ester]
- Inhibitory effects against human platelet aggregation (relative activity), after incubating in human serum for 20 min [4]: 4

SMILES: CCCCOC(=O)CCCCCCC1=C(OC(C)=O)C[C@@H](O)[C@@H]1/C=C/[C@@H](O)C[C@@H](C)CCCC [Example 1, butyl 9-actoxy-11α,15S-dihyroxy-17S,20-dimethylprosta-8-13E-diene-1-oate]
- Stability during the preparation [1]: 75.6%
- Storage stability: Decomposition reaction rate constant [2]: 6.20 d^-1 × 10^3
- Storage stability: Remaining rate [2]: 84.8%
- Platelet aggregation inhibitory effects [3]: 37%

SMILES: CCCCC[C@H](O)/C=C/[C@H]1[C@H](O)CC(=O)[C@@H]1CCCCCCC(=O)OCCCC [PGE1 butyl ester]
- Inhibitory effects against human platelet aggregation (relative activity) [4]: 29
- Inhibitory effects against human platelet aggregation (relative activity), after incubating in human serum for 20 min [4]: 89
- % of PGE1 (or ester) liberated from LM, 1 min incubation [5]: 60.5 ± 4.0%
- % of PGE1 (or ester) liberated from LM, 10 min incubation [5]: 65.3 ± 5.6%
